Laboratory results published in ChEMBL document CHEMBL4834461, “Intracellular fluorescence competition assay for inhibitor engagement of histone deacetylase” (Bioorg Med Chem Lett, 2021).
pIC50: −log10 of the molar value.

Key:
[1] = molecular target: T1, Protein deacetylase HDAC6 (Homo sapiens, UniProt Q9UBN7); experiment: Inhibition of HDAC6 (unknown origin)
T1 sequence (Q9UBN7 whole entry): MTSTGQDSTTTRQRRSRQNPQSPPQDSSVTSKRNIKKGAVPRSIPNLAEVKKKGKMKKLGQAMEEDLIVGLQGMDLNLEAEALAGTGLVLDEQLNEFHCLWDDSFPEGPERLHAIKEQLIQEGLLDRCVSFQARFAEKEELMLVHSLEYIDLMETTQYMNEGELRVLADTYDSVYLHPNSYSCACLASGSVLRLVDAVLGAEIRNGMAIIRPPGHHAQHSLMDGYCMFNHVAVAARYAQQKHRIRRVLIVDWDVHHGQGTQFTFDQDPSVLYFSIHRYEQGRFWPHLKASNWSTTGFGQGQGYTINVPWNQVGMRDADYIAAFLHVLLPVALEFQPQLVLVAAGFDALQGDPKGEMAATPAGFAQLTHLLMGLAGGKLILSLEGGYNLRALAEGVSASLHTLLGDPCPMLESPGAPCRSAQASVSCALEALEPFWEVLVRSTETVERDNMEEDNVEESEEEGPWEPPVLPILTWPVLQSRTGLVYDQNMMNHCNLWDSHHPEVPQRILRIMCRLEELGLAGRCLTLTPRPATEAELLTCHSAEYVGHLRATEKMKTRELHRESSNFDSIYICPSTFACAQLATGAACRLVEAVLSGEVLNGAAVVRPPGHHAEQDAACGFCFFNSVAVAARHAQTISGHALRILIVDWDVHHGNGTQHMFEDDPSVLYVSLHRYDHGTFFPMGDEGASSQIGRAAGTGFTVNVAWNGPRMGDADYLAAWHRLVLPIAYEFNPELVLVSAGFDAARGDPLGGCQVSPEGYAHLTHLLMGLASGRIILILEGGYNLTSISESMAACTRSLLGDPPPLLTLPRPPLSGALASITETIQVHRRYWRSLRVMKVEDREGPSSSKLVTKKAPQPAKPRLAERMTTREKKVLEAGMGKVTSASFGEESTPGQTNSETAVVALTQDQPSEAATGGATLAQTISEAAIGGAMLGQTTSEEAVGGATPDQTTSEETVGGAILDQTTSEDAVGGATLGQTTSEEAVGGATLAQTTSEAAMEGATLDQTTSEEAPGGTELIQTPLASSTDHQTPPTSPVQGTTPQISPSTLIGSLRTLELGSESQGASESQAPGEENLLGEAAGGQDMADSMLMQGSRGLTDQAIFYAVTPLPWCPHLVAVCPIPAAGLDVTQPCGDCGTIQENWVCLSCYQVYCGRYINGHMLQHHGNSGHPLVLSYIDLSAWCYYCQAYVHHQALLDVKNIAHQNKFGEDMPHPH

[2] = molecular target: Histone deacetylase 1 (Homo sapiens, UniProt Q13547); experiment: Inhibition of HDAC1 (unknown origin)
Histone deacetylase 1, sequence (Q13547 whole entry): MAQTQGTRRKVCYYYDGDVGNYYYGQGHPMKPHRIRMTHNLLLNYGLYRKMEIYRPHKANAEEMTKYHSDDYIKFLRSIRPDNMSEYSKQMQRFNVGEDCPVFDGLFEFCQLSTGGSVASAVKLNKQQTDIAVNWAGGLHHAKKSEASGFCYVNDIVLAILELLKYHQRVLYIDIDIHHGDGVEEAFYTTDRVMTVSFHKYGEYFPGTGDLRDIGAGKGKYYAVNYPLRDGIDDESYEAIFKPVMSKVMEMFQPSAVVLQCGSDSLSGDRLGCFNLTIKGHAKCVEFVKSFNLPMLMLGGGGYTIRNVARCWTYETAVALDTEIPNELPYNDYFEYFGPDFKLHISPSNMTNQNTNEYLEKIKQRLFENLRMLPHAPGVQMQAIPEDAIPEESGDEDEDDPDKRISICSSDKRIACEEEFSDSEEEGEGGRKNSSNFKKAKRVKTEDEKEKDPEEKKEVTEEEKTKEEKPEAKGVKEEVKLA

Compound	pIC50 [1]	pIC50 [2]
O=C(CCCCCN1C(=O)c2cccc3c(OCc4ccc(C(F)(F)F)cc4)ccc(c23)C1=O)NO	7.92	6.55
CCCNc1ccc2c3c(cccc13)C(=O)N(CCCC(=O)NO)C2=O	5.95	5.02
